Data taken from patent US20080241904A1, “PROCESS FOR PRODUCING ISOMALTOSE AND USES THEREOF” (KABUSHIKI KAISHA HAYASHIBARA SEIBUTSU KAGAKU KENKYUJO, priority 2001, published 2008).

Legend:
[1] = system: α-isomaltosyl-transferring enzyme; experiment: Influence of metal ions on activity of α-isomaltosyl-transferring enzyme (Strain C9); assay type: biochemical, Bacillus globisporus C9; conditions: for Relative activity: in the presence of 1 mM of each metal ion, None = 100; for Effect on enzyme activity (in words): 1 mM, summary of Table 4
Method: (§1) The α-isomaltosyl-transferring enzyme was assayed for enzymatic activity by dissolving panose in 100 mM acetate buffer (pH 6.0) to give a concentration of 2% (w/v) for a substrate solution, adding a 0.5 ml of an enzyme solution to 0.5 ml of the substrate solution, enzymatically reacting the mixture solution at 35° C. for 30 min, suspending the reaction mixture by boiling for 10 min, and quantifying glucose, among the cyclotetrasaccharide and glucose formed in the reaction mixture, by the glucose oxidase method. One unit activity of the α-isomaltosyl-transferring enzyme is defined as the enzyme amount that forms one micromole of glucose per minute under the above enzymatic reaction conditions.
(§2) The influence of metal ions on the activity of α-isomaltosyl-transferring enzyme was examined in the presence of 1 mM of each metal-ion according to the assay for the enzyme activity.

[2] = system: α-isomaltosyl-transferring enzyme; experiment: Influence of metal ions on activity of α-isomaltosyl-transferring enzyme (Strain C11); assay type: biochemical, Bacillus globisporus C11; conditions: for Relative activity: in the presence of 1 mM of each metal ion, None = 100; for Effect on enzyme activity (in words): 1 mM, summary of Table 8
Method: as §1, §2

[3] = system: α-isomaltosylglucosaccharide-forming enzyme; experiment: Influence of metal ions on activity of α-isomaltosylglucosaccharide-forming enzyme (Strain C9); assay type: biochemical, Bacillus globisporus C9; conditions: for Relative activity: in the presence of 1 mM of each metal ion, None = 100; for Effect on enzyme activity (in words): 1 mM, summary of Table 2
Method: The activities of these enzymes were assayed as follows: The α-isomaltosylglucosaccharide-forming enzyme of the present invention was assayed for enzymatic activity by dissolving maltotriose in 100 mM acetate buffer (pH 6.0) to give a concentration of 2% (w/v) for a substrate solution, adding a 0.5 ml of an enzyme solution to a 0.5 ml of the substrate solution, enzymatically reacting the mixture solution at 35° C. for 60 min, suspending the reaction mixture by heating at 100° C. for 10 min, and quantifying maltose, among the isomaltosyl maltose and maltose formed in the reaction mixture, by high-performance liquid chromatography (abbreviated as “HPLC” hereinafter). HPLC was carried out using “YMC PACK ODS-AQ303 column” commercialized by YMC Co., Ltd., Tokyo, Japan, at a column temperature of 40° C. and a flow rate of 0.5 ml/min of water; and using “RI-8012”, a differential refractometer commercialized by Tosoh Corporation, Tokyo, Japan. One unit activity of the α-isomaltosylglucosaccharide-forming enzyme is defined as the enzyme amount that forms one micromole of maltose per minute under the above enzymatic reaction conditions.
The influence of metal ions on the activity of α-isomaltosylglucosaccharide-forming enzyme was examined in the presence of 1 mM of each metal-ion according to the assay for the enzyme activity.

[4] = system: α-isomaltosylglucosaccharide-forming enzyme; experiment: Influence of metal ions on enzyme activity, Experiment 4-2 (Strain C11); assay type: biochemical, Bacillus globisporus C11; conditions: for Relative activity: in the presence of 1 mM of each metal ion, None = 100; for Effect on enzyme activity (in words): 1 mM, summary of Table 6
[5] = system: α-isomaltosylglucosaccharide-forming enzyme from Bacillus globisporus C9; experiment: Action of α-isomaltosylglucosaccharide-forming enzyme on saccharides as substrates (TLC), enzyme of Strain C9; assay type: biochemical; design: key: −: it showed no change; +: it showed a slight reduction of the color of substrate spot and the formation of other reaction product; ++: it showed a high reduction of the color of substrate spot and the formation of other reaction product; +++: it showed a substantial disappearance of the color of substrate spot and the formation of other reaction product; conditions: two units/g substrate, substrate 2% (w/v), 30° C., pH 6.0, 24 hours
Method: (§3) The action of α-isomaltosylglucosaccharide-forming enzyme on saccharides as substrates was tested. First, a solution of maltose, maltotriose, maltotetraose, maltopentaose, maltohexaose, maltoheptaose, isomaltose, isomaltotriose, panose, isopanose, α,α-trehalose (may be abbreviated as “trehalose” hereinafter), kojibiose, nigerose, neotrehalose, cellobiose, gentibiose, maltitol, maltotriitol, lactose, sucrose, erlose, selaginose, maltosyl glucoside, or isomaltosyl glucoside was prepared. To each of the above solutions was added two units/g substrate of the purified specimen of α-isomaltosylglucosaccharide-forming enzyme from Bacillus globisporus C9 in Experiment 2-1 or Bacillus globisporus C11 in Experiment 4-1, and each resulting solution was adjusted to give a substrate concentration of 2% (w/v) and incubated at 30° C. and pH 6.0 for 24 hours. The solutions before and after the enzymatic reactions were respectively subjected to thin-layer chromatography (abbreviated as “TLC” hereinafter). TLC was carried out in such a manner of separating saccharides by developing the solutions twice each using, as a developer, a mixture solution of n-butanol, pyridine, and water (=6:4:1), and, as a thin-layer plate, “[…] 60”, an aluminum plate (20×20 cm) for TLC commercialized by Merck & Co., Inc., Rahway, USA.; detecting the total saccharides in each mixture solution by spraying a mixture of sulfuric acid and methanol onto the aluminum plates to develop color of the total saccharides and detecting non-reducing saccharides in each mixture solution by the diphenylamine-aniline method.

[6] = system: α-isomaltosylglucosaccharide-forming enzyme from Bacillus globisporus C9 strain; experiment: Specificity of saccharide transferring reaction acceptor, enzyme of Strain C9; assay type: biochemical; conditions: 1.6% acceptor, 4% PINE-DEX #100 as donor, one unit/g donor, 30° C., pH 6.0, 24 hours; GLC or HPLC
Method: (§4) Using different saccharides, it was tested whether the saccharides were used as saccharide transferring reaction acceptors for the α-isomaltosylglucosaccharide-forming enzyme. A 1.6% solution, as a solution of saccharide transferring reaction acceptor, of D-glucose, D-xylose, L-xylose, D-galactose, D-fructose, D-mannose, D-arabinose, D-fucose, L-sorbose, L-rhamnose, methyl-α-glucopyranoside (methyl-α-glucose), methyl-β-glucopyranoside ([…]), N-acetyl-glucosamine, sorbitol, α,α-trehalose, isomaltose, isomaltotriose, cellobiose, gentibiose, maltitol, lactose, sucrose, α-cyclodextrin, β-cyclodextrin, or γ-cyclodextrin, was prepared. To each solution with a saccharide concentration was added “PINE-DEX #100”, a partial starch hydrolysate, as a saccharide donor, to give a concentration of 4%, and admixed with one unit/g saccharide donor, d.s.b., of either of purified specimens of α-isomaltosylglucosaccharide-forming enzyme from Bacillus globisporus C9 strain obtained by the method in Experiment 2-1, Bacillus globisporus C11 strain obtained by the method in Experiment 4-1. The resulting mixture solutions were incubated at 30° C. and pH 6.0 except that the enzyme from Arthrobacter globiformis A19 strain was incubated at pH 8.4 for 24 hours. The reaction mixtures of the post-enzymatic reactions were analyzed on gas chromatography (abbreviated as “GLC” hereinafter) for monosaccharides and disaccharides as acceptors, and on HPLC for trisaccharides as acceptors to confirm whether these saccharides could be used as their saccharide transferring reaction acceptors. In the case of performing GLC, the following apparatuses and conditions are used: GLC apparatus, “GC-16A” commercialized by Shimadzu Corporation, Tokyo, Japan; column, a stainless-steel column, 3 mm in diameter and 2 m in length, packed with 2% “SILICONE OV-17/CHROMOSOLV W”, commercialized by GL Sciences Inc., Tokyo, Japan; carrier gas, nitrogen gas at a flow rate of 40 ml/min under temperature conditions of increasing from 160° C. to 320° C. at an increasing temperature rate of 7.5° C./min; and detection, a hydrogen flame ionization detector.
(§5) In the case of HPLC analysis, the apparatuses and conditions used were: HPLC apparatus, “CCPD” commercialized by Tosoh Corporation, Tokyo, Japan; column, “ODS-AQ-303” commercialized by YMC Co., Ltd., Tokyo, Japan; eluent, water at a flow rate of 0.5 ml/min; and detection, a differential refractometer.

[7] = system: α-isomaltosylglucosaccharide-forming enzyme from Bacillus globisporus C11; experiment: Action of α-isomaltosylglucosaccharide-forming enzyme on saccharides as substrates (TLC), enzyme of Strain C11; assay type: biochemical; design: key: −: it showed no change; +: it showed a slight reduction of the color of substrate spot and the formation of other reaction product; ++: it showed a high reduction of the color of substrate spot and the formation of other reaction product; +++: it showed a substantial disappearance of the color of substrate spot and the formation of other reaction product; conditions: two units/g substrate, substrate 2% (w/v), 30° C., pH 6.0, 24 hours
Method: as §3

[8] = system: α-isomaltosylglucosaccharide-forming enzyme from Bacillus globisporus C11 strain; experiment: Specificity of saccharide transferring reaction acceptor, enzyme of Strain C11; assay type: biochemical; conditions: 1.6% acceptor, 4% PINE-DEX #100 as donor, one unit/g donor, 30° C., pH 6.0, 24 hours; GLC or HPLC
Method: as §4, §5

Relative activity [1] [%]	Relative activity [2] [%]	Relative activity [3] [%]	Relative activity [4] [%]	Effect on enzyme activity (in words) [3]	Effect on enzyme activity (in words) [4]	Enzymatic action, Enzyme of Strain C9 [5]	Enzymatic action, Enzyme of Strain C11 [7]	SMILES	Product of saccharide transferring reaction, Enzyme of Strain C9 [6]	Product of saccharide transferring reaction, Enzyme of Strain C11 [8]	other results
104	98	20	24	greatly inhibited	greatly inhibited			O=C(O)CN(CCN(CC(=O)O)CC(=O)O)CC(=O)O [EDTA]			Effect on enzyme activity (in words) [1]: not inhibited; Effect on enzyme activity (in words) [2]: not inhibited
96			100					[Fe+2] [Fe^2+]			Relative activity ([1]; listed as Fe^3+): 105%; Relative activity ([4]; listed as Fe^3+): 102%
						−	−	OC[C@H]1O[C@@H](O[C@H]2[C@H](O)[C@@H](O)C(O)O[C@@H]2CO)[C@H](O)[C@@H](O)[C@H]1O (stereo partly drawn) [Lactose, lactose]	++ (a saccharide-transferred product was detected in an amount of at least ten percent through transferring reaction to acceptor)	++ (a saccharide-transferred product was detected in an amount of at least ten percent through transferring reaction to acceptor)	
						−	−	OC[C@@H](O)[C@@H](O[C@H]1O[C@H](CO)[C@@H](O)[C@H](O)[C@H]1O)[C@H](O)[C@@H](O)CO [Maltitol, maltitol]	++ (a saccharide-transferred product was detected in an amount of at least ten percent through transferring reaction to acceptor)	++ (a saccharide-transferred product was detected in an amount of at least ten percent through transferring reaction to acceptor)	
	91	100						[Mg+2] [Mg^2+]			
						−	−	OC[C@H]1O[C@@](CO)(O[C@H]2O[C@H](CO)[C@@H](O)[C@H](O)[C@H]2O)[C@@H](O)[C@@H]1O [Sucrose, sucrose]	++ (a saccharide-transferred product was detected in an amount of at least ten percent through transferring reaction to acceptor)	++ (a saccharide-transferred product was detected in an amount of at least ten percent through transferring reaction to acceptor)	
						−	−	OC[C@H]1O[C@H](O[C@H]2O[C@H](CO)[C@@H](O)[C@H](O)[C@H]2O)[C@H](O)[C@@H](O)[C@@H]1O [Trehalose, α,α-trehalose]	++ (a saccharide-transferred product was detected in an amount of at least ten percent through transferring reaction to acceptor)	++ (a saccharide-transferred product was detected in an amount of at least ten percent through transferring reaction to acceptor)	

More lines, now with the values behind:

SMILES	Relative activity [1] [%]	Relative activity [2] [%]	Relative activity [3] [%]	Relative activity [4] [%]	Effect on enzyme activity (in words) [3]	Effect on enzyme activity (in words) [4]	Enzymatic action, Enzyme of Strain C9 [5]	Enzymatic action, Enzyme of Strain C11 [7]	Product of saccharide transferring reaction, Enzyme of Strain C9 [6]	Product of saccharide transferring reaction, Enzyme of Strain C11 [8]	other results
[Al+3] [Al^3+]	103	89	99	100							
[Ba+2] [Ba^2+]	102	90	65	65	inhibited	inhibited					
[Ca+2] [Ca^2+]	101	91	115	109	activated	activated					Effect on enzyme activity (in words) [1]: not activated; Effect on enzyme activity (in words) [2]: not activated
[Co+2] [Co^2+]	103	89	100	96							
[Cu+2] [Cu^2+]	57	56	15	23	greatly inhibited	greatly inhibited					Effect on enzyme activity (in words) [1]: inhibited; Effect on enzyme activity (in words) [2]: inhibited
[Ni+2] [Ni^2+]	102	89		93							
